# In PubChem BioAssay AID977614 (Broad Institute, 2014):
# The source made the active and inactive calls.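 How the source made its calls: active means parasite count per well reduced by over 3 SD from the mean, with host cell number above 80% of untreated; inactive means the rest.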
# Tested on: L. donovani amastigotes in THP-1 macrophages, DAPI imaging, 72 h
# Assay: L. donovani intracellular amastigote growth inhibitors, imaging, THP-1 host macrophages, single concentration (AID 977614);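 further: signal is the parasite per host cell ratio from DAPI stained kinetoplasts and nuclei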
row,Compound,AC50
1,O=C(Nc1ccc(F)cc1)N1[C@@H](CO)[C@@H]2c3ccccc3NC[C@@H]21,> 10 µM (inactive)
2,COCC(=O)N(C[C@H]1[C@H](c2ccccc2)[C@@H](CO)N1C(=O)NC(C)C)C(C)C,> 10 µM (inactive)
3,CC(=O)N1[C@H](CO)[C@H]2c3ccccc3N(S(=O)(=O)c3ccccc3C)C[C@H]21,> 10 µM (inactive)
4,C/C=C/c1ccc([C@@H]2[C@H](CO)N[C@H]2CN(C(=O)c2ccccc2F)C(C)C)cc1,> 10 µM (inactive)
5,CN(C[C@@H]1[C@H](c2ccccc2)[C@H](CO)N1Cc1ccccn1)S(C)(=O)=O,> 10 µM (inactive)
6,CN1C[C@@H]2[C@H](c3ccccc31)[C@H](CO)N2Cc1ccccc1Cl,> 10 µM (inactive)
7,C[C@H]1CN([C@@H](C)CO)C(=O)CCCn2nncc2CO[C@H]1CN(C)C(=O)Nc1ccnc(N2CCOCC2)c1,> 10 µM (inactive)
8,C[C@H](CO)N1C[C@H](C)[C@H](CN(C)Cc2ccccc2)OCc2cn(nn2)CCCC1=O,> 10 µM (inactive)
9,O=C(CC1CC1)N1[C@H](CO)[C@H]2c3ccccc3N(S(=O)(=O)c3ccccc3F)C[C@H]21,> 10 µM (inactive)
10,CC(=O)N1[C@H](CO)[C@H](c2ccccc2)[C@H]1CNC(=O)CN1CCOCC1,> 10 µM (inactive)
11,CCN(C[C@@H]1[C@@H](c2ccccc2)[C@H](CO)N1C(=O)COC)S(C)(=O)=O,> 10 µM (inactive)
12,CC(=O)N1[C@@H]2CN(C(=O)c3ccc(F)cc3)c3ccccc3[C@@H]2[C@@H]1CO,> 10 µM (inactive)
13,O=C(C1CCC1)N1C[C@@H]2[C@H](c3ccccc31)[C@H](CO)N2C(=O)Nc1cccc(F)c1,> 10 µM (inactive)
14,C[C@@H]1CN([C@@H](C)CO)C(=O)CCCn2nncc2CO[C@@H]1CN(C)C(=O)CCC(F)(F)F,> 10 µM (inactive)
15,CCN(C[C@H]1[C@H](c2ccccc2)[C@@H](CO)N1CC1CC1)C(=O)c1ccccn1,> 10 µM (inactive)
16,O=C(NC[C@@H]1[C@@H](c2ccccc2)[C@H](CO)N1Cc1cccnc1)c1ccccn1,> 10 µM (inactive)
17,COc1ccccc1NC(=O)N1C[C@H]2[C@@H](c3ccccc31)[C@H](CO)N2C(=O)C1CCCC1,> 10 µM (inactive)
18,C[C@@H]1CN([C@@H](C)CO)C(=O)CCCn2cc(nn2)CO[C@H]1CN(C)C(=O)Oc1ccc2ccccc2c1,> 10 µM (inactive)
19,CC(C)N(C[C@@H]1N[C@@H](CO)[C@@H]1c1ccccc1)S(=O)(=O)c1ccccc1,> 10 µM (inactive)

row,Compound,AC50
1,CCCNC(=O)N1C[C@@H]2[C@H](c3ccccc31)[C@@H](CO)N2C(=O)Nc1ccccc1F,> 10 µM (inactive)
2,CN(C[C@H]1[C@@H](c2ccc(C3=CCCC3)cc2)[C@@H](CO)N1CCC(F)(F)F)S(C)(=O)=O,> 10 µM (inactive)
3,COCC(=O)N1C[C@@H]2[C@H](c3ccccc31)[C@@H](CO)N2Cc1cc(F)ccc1F,> 10 µM (inactive)
4,O=C(Nc1ccc(F)cc1)N1C[C@@H]2[C@H](c3ccccc31)[C@H](CO)N2Cc1ccccc1Cl,> 10 µM (inactive)
5,C[C@@H]1CN([C@@H](C)CO)C(=O)CCCn2cc(nn2)CO[C@@H]1CN(C)C(=O)NC1CCCCC1,> 10 µM (inactive)
6,O=C(Cc1ccccn1)N1[C@H](CO)[C@@H]2c3ccccc3NC[C@@H]21,> 10 µM (inactive)
7,COCC(=O)N1[C@H](CO)[C@@H]2c3ccccc3N(C(=O)Nc3ccccc3Cl)C[C@@H]21,> 10 µM (inactive)
8,C[C@@H]1CN([C@H](C)CO)C(=O)CCCn2nncc2CO[C@@H]1CN(C)S(=O)(=O)c1ccccc1C#N,> 10 µM (inactive)
9,Cc1noc(C)c1NC(=O)N(C)C[C@@H]1OCc2cn(nn2)CCCC(=O)N([C@@H](C)CO)C[C@@H]1C,> 10 µM (inactive)
10,COc1cccc(C(=O)N2C[C@@H]3[C@H](c4ccccc42)[C@@H](CO)N3C(=O)c2cccc(F)c2)c1,> 10 µM (inactive)
11,C[C@H]1CN([C@@H](C)CO)C(=O)CCCn2cc(nn2)CO[C@@H]1CN(C)C(=O)CCC(F)(F)F,> 10 µM (inactive)
12,CN(C[C@H]1[C@@H](c2ccccc2)[C@@H](CO)N1Cc1ccccn1)S(C)(=O)=O,> 10 µM (inactive)
13,O=C(c1ccc2c(c1)OCO2)N1C[C@H]2[C@@H](c3ccccc31)[C@H](CO)N2C(=O)CC1CC1,> 10 µM (inactive)
14,CCC(=O)N1[C@@H](CO)[C@@H]2c3ccccc3N(S(=O)(=O)c3ccc(F)cc3)C[C@@H]21,> 10 µM (inactive)
15,C[C@H]1CN([C@@H](C)CO)C(=O)CCCn2cc(nn2)CO[C@H]1CN(C)S(=O)(=O)c1cccc(C#N)c1,> 10 µM (inactive)
16,C[C@H]1CN([C@@H](C)CO)C(=O)CCCn2nncc2CO[C@@H]1CN(C)Cc1ccccc1C(=O)O,> 10 µM (inactive)
17,O=C(C1CCOCC1)N1C[C@H]2[C@@H](c3ccccc31)[C@@H](CO)N2C(=O)Cc1ccccn1,> 10 µM (inactive)
18,CCCN(C[C@H]1N[C@H](CO)[C@@H]1c1ccccc1)C(=O)COC,> 10 µM (inactive)
19,Cc1cccc(S(=O)(=O)N2C[C@@H]3[C@H](c4ccccc42)[C@H](CO)N3CC2CCCC2)c1,> 10 µM (inactive)
